In PubChem BioAssay AID192 (DTP/NCI, 2004):
Where “and” joins values, the source holds several entries; their conditions need not be identical. Equal values may be shown once. Inconclusive results and toxic doses are left out. How the source made its calls: active means survival T/C of 150% or more; inactive means T/C below 125% in these data.

Tested on: BDF1 mice, B16 melanoma ip, median survival T/C
Assay: NCI In Vivo Anticancer Drug Screen. Data for tumor model B16 Melanoma (intraperitoneal) in B6D2F1 (BDF1) mice
Settings: endpoint: median survival time, higher = longer survival
Experimental: The antitumor activity of compounds was measured in mice bearing transplantable tumors. Survival or tumor size were measured and the results are expressed as the measurement made in the treated group (T) divided by the measurement made in the vehicle treated control group (C). The tumor model used in this assay is B16 Melanoma (intraperitoneal) in B6D2F1 (BDF1) mice

[1] = dose: 100.0 mg/kg/injection, schedule: Q04DX003 (ip), vehicle: Klucel (hydroxypropylcellulose) (HPC)
[2] = dose: 200.0 mg/kg/injection, schedule: Q04DX003 (ip), vehicle: Klucel (hydroxypropylcellulose) (HPC)
[3] = dose: 400.0 mg/kg/injection, schedule: Q04DX003 (ip), vehicle: Klucel (hydroxypropylcellulose) (HPC)
[4] = dose: 50.0 mg/kg/injection, schedule: Q04DX003 (ip), vehicle: saline with Tween-80
[5] = dose: 100.0 mg/kg/injection, schedule: Q04DX003 (ip), vehicle: saline with Tween-80
[6] = dose: 200.0 mg/kg/injection, schedule: Q04DX003 (ip), vehicle: saline with Tween-80
[7] = dose: 100.0 mg/kg/injection, schedule: Q01DX009 (ip), vehicle: Klucel (hydroxypropylcellulose) (HPC)
[8] = dose: 200.0 mg/kg/injection, schedule: Q01DX009 (ip), vehicle: Klucel (hydroxypropylcellulose) (HPC)

Measured: T/C

CC(CN1CC(=O)NC(=O)C1)N1CC(=O)NC(=O)C1 (stereo not drawn)
inactive: dose: 3.75 mg/kg/injection, schedule: Q01DX009 (ip), vehicle: alkali diluted with saline 99 % of control | dose: 3.75 mg/kg/injection, schedule: Q01DX009 (ip), vehicle: saline sonified 97 % of control | dose: 3.75 mg/kg/injection, schedule: Q01DX009 (ip), vehicle: saline 102 % of control | dose: 3.75 mg/kg/injection, schedule: Q04DX004 (ip), vehicle: saline 100 % of control | dose: 4.0 mg/kg/injection, schedule: Q01DX009 (ip), vehicle: saline with Tween-80 114 % of control | dose: 4.0 mg/kg/injection, schedule: Q01DX009 (ip), vehicle: saline 115 % of control | dose: 7.5 mg/kg/injection, schedule: Q01DX009 (ip), vehicle: alkali diluted with saline 105 % of control | dose: 7.5 mg/kg/injection, schedule: Q01DX009 (ip), vehicle: saline sonified 100 % of control | dose: 7.5 mg/kg/injection, schedule: Q01DX009 (ip), vehicle: saline 104 % of control | dose: 7.5 mg/kg/injection, schedule: Q04DX004 (ip), vehicle: saline 90 % of control | dose: 8.0 mg/kg/injection, schedule: Q01DX009 (ip), vehicle: saline with Tween-80 105 % of control and 112 % of control and 118 % of control | dose: 8.0 mg/kg/injection, schedule: Q01DX009 (ip), vehicle: saline 123 % of control | dose: 15.0 mg/kg/injection, schedule: Q01DX009 (ip), vehicle: alkali diluted with saline 110 % of control | dose: 15.0 mg/kg/injection, schedule: Q01DX009 (ip), vehicle: saline sonified 109 % of control | dose: 15.0 mg/kg/injection, schedule: Q01DX009 (ip), vehicle: saline with Tween-80 110 % of control | dose: 15.0 mg/kg/injection, schedule: Q01DX009 (ip), vehicle: saline 114 % of control | dose: 15.0 mg/kg/injection, schedule: Q04DX004 (ip), vehicle: saline 88 % of control | dose: 16.0 mg/kg/injection, schedule: Q01DX009 (ip), vehicle: saline with Tween-80 121 % of control and 123 % of control | dose: 25.0 mg/kg/injection, schedule: Q04DX003 (ip), vehicle: Klucel (hydroxypropylcellulose) (HPC) 94 % of control and 97 % of control | dose: 30.0 mg/kg/injection, schedule: Q01DX009 (ip), vehicle: alkali diluted with saline 119 % of control | dose: 30.0 mg/kg/injection, schedule: Q01DX009 (ip), vehicle: saline sonified 119 % of control | dose: 30.0 mg/kg/injection, schedule: Q01DX009 (ip), vehicle: saline with Tween-80 113 % of control | dose: 30.0 mg/kg/injection, schedule: Q01DX009 (ip), vehicle: saline 121 % of control | dose: 30.0 mg/kg/injection, schedule: Q01DX009 (oral), vehicle: saline 95 % of control | dose: 30.0 mg/kg/injection, schedule: Q04DX004 (ip), vehicle: saline 90 % of control | dose: 32.0 mg/kg/injection, schedule: Q01DX009 (ip), vehicle: Klucel (hydroxypropylcellulose) (HPC) 115 % of control | dose: 32.0 mg/kg/injection, schedule: Q01DX009 (ip), vehicle: saline with Tween-80 122 % of control | dose: 32.0 mg/kg/injection, schedule: Q04DX003 (ip), vehicle: saline with Tween-80 109 % of control and 110 % of control | dose: 50.0 mg/kg/injection, schedule: Q04DX003 (ip), vehicle: Klucel (hydroxypropylcellulose) (HPC) 108 % of control and 110 % of control | dose: 60.0 mg/kg/injection, schedule: Q01DX009 (ip), vehicle: saline with Tween-80 118 % of control | dose: 60.0 mg/kg/injection, schedule: Q04DX004 (ip), vehicle: saline 111 % of control | dose: 64.0 mg/kg/injection, schedule: Q01DX009 (ip), vehicle: Klucel (hydroxypropylcellulose) (HPC) 120 % of control | dose: 64.0 mg/kg/injection, schedule: Q04DX003 (ip), vehicle: saline with Tween-80 108 % of control and 115 % of control | dose: 64.0 mg/kg/injection, schedule: Q04DX003 (ip), vehicle: saline 115 % of control | [1] 108 % of control and 112 % of control | dose: 120.0 mg/kg/injection, schedule: Q01DX009 (ip), vehicle: saline with Tween-80 116 % of control | dose: 128.0 mg/kg/injection, schedule: Q01DX009 (ip), vehicle: Klucel (hydroxypropylcellulose) (HPC) 120 % of control | dose: 128.0 mg/kg/injection, schedule: Q04DX003 (ip), vehicle: saline with Tween-80 121 % of control | dose: 128.0 mg/kg/injection, schedule: Q04DX003 (ip), vehicle: saline 121 % of control | [2] 112 % of control | [3] 108 % of control | dose: 800.0 mg/kg/injection, schedule: Q04DX003 (ip), vehicle: Klucel (hydroxypropylcellulose) (HPC) 112 % of control

Cc1ccc(NC(=O)c2ccc(Cl)cc2)c(C)c1
inactive: dose: 75.0 mg/kg/injection, schedule: Q01DX009 (ip), vehicle: Klucel (hydroxypropylcellulose) (HPC) 93 % of control | dose: 150.0 mg/kg/injection, schedule: Q01DX009 (ip), vehicle: Klucel (hydroxypropylcellulose) (HPC) 91 % of control | dose: 300.0 mg/kg/injection, schedule: Q01DX009 (ip), vehicle: Klucel (hydroxypropylcellulose) (HPC) 88 % of control

Nc1cc(Cl)cc(Cl)c1C(=O)O
inactive: dose: 50.0 mg/kg/injection, schedule: Q04DX003 (ip), vehicle: other 102 % of control | dose: 100.0 mg/kg/injection, schedule: Q04DX003 (ip), vehicle: other 100 % of control | dose: 200.0 mg/kg/injection, schedule: Q04DX003 (ip), vehicle: other 102 % of control

OC(C#Cc1ccccc1)c1ccccc1 (stereo not drawn)
inactive: [4] 108 % of control | [5] 97 % of control | [6] 98 % of control

CN1CCC=C(CN2c3ccccc3Sc3ccccc32)C1
inactive: dose: 25.0 mg/kg/injection, schedule: Q01DX009 (ip), vehicle: saline 104 % of control | dose: 50.0 mg/kg/injection, schedule: Q01DX009 (ip), vehicle: saline 106 % of control

Nc1nc(N)n2c(N)nnc2n1
inactive: dose: 100.0 mg/kg/injection, schedule: Q01DX009 (ip), vehicle: saline 87 % of control | dose: 200.0 mg/kg/injection, schedule: Q01DX009 (ip), vehicle: saline 88 % of control

Cc1nc2c(=O)n(C)c(=O)n(C)c2n1C
inactive: [4] 105 % of control | [5] 105 % of control | [6] 105 % of control

COc1ccc2c(c1)CN(S(=O)(=O)c1ccc(C)cc1)C=CC2=O
inactive: [1] 108 % of control | [2] 103 % of control | [3] 97 % of control

OCCN1CCN(CCCN2c3ccccc3CCc3ccccc32)CC1
inactive: dose: 3.9 mg/kg/injection, schedule: Q01DX009 (ip), vehicle: saline 95 % of control | dose: 7.81 mg/kg/injection, schedule: Q01DX009 (ip), vehicle: saline 93 % of control | dose: 15.62 mg/kg/injection, schedule: Q01DX009 (ip), vehicle: saline 100 % of control | dose: 31.25 mg/kg/injection, schedule: Q01DX009 (ip), vehicle: saline 97 % of control | dose: 62.5 mg/kg/injection, schedule: Q01DX009 (ip), vehicle: saline 95 % of control

CC[n+]1c(C)sc2cc3c(cc21)OCO3
inactive: dose: 25.0 mg/kg/injection, schedule: Q01DX009 (ip), vehicle: carboxymethylcellulose (CMC) 108 % of control | dose: 50.0 mg/kg/injection, schedule: Q01DX009 (ip), vehicle: carboxymethylcellulose (CMC) 106 % of control

CCOc1ccc(NC(=O)C=O)cc1
inactive: [7] 100 % of control | [8] 90 % of control | dose: 400.0 mg/kg/injection, schedule: Q01DX009 (ip), vehicle: Klucel (hydroxypropylcellulose) (HPC) 90 % of control

NC(=O)C(N)=O
inactive: [7] 103 % of control | [8] 96 % of control
